Structures can show the parent of a compound that is named as a salt.
Columns and labels:
[1] = tested on: S-3769 strain; assay: Combinational effect with antibacterial agent against Pseudomonas aeruginosa (Test Examples 2 and 4): S-3769 strain with AMK or GM at 1/4 MIC, EC99; format: cell-based; conditions: for EC99, combinational effect with AMK, S-3769 strain / EC99, S-3769 strain, AMK: combined with AMK at 1/4 MIC; for EC99, combinational effect with AMK, S-3769 strain / EC99, combinational effect with GM, S-3769 strain: Test Example 4; for EC99, combinational effect with GM, S-3769 strain / EC99, S-3769 strain, GM: combined with GM at 1/4 MIC; for EC99, S-3769 strain, AMK / EC99, S-3769 strain, GM: Table 52, Test Example 2, 16 to 20 hours culture, OD595
Summary of the method: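 P. aeruginosa S-3769 (clinical isolate, MexY overexpressed) grown 16–20 h in CAMHB, 10^4 to 5 CFU/well, with AMK or GM at ¼ MIC plus test compound 0–800 μM. Growth read as OD595; EC99 is the lowest compound concentration giving ≥99% growth inhibition.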

[2] = tested on: mexB (PA) strain; assay: Combinational effect with antibacterial agent against Pseudomonas aeruginosa (Test Examples 2 and 4): mexB (PA) strain with LVFX, TC or AZT at 1/4 MIC, EC99; format: cell-based; conditions: for EC99, combinational effect with AZT, mexB (PA) / EC99, combinational effect with LVFX, mexB (PA) / EC99, combinational effect with TC, mexB (PA): mexB (PA) strain, Test Example 4; for EC99, combinational effect with AZT, mexB (PA) / EC99, mexB (PA), AZT: combined with AZT at 1/4 MIC; for EC99, combinational effect with LVFX, mexB (PA) / EC99, mexB (PA), LVFX: combined with LVFX at 1/4 MIC; for EC99, combinational effect with TC, mexB (PA) / EC99, mexB (PA), TC: combined with TC at 1/4 MIC; for EC99, mexB (PA), AZT / EC99, mexB (PA), LVFX / EC99, mexB (PA), TC: Table 52, Test Example 2, 16 to 20 hours culture, OD595
Summary of the method: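 P. aeruginosa mexB (PA) strain, lacking MexCD-OprJ, MexEF-OprN and MexXY and overexpressing MexAB-OprM, grown 16–20 h in CAMHB (10^4–5 CFU/well) with LVFX, TC or AZT at ¼ MIC plus test compound at 0–800 μM. Growth read as OD595; EC99 is the lowest compound concentration giving ≥99% growth inhibition.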

Row | Structure (SMILES) | EC99, combinational effect with AMK, S-3769 strain [1] | EC99, combinational effect with GM, S-3769 strain [1] | EC99, combinational effect with AZT, mexB (PA) [2] | EC99, combinational effect with LVFX, mexB (PA) [2] | EC99, combinational effect with TC, mexB (PA) [2] | EC99, S-3769 strain, AMK [1] | EC99, S-3769 strain, GM [1] | EC99, mexB (PA), AZT [2] | EC99, mexB (PA), LVFX [2] | EC99, mexB (PA), TC [2]
1 | CCOc1ncccc1CN1CCN(C(=O)[C@H](N)C2CCN(CCc3cc(Cl)ccc3-c3ccccc3)CC2)CC1 [Example 511, Hydrobromide of (R)-2-amino-2-(1-(2-(4-chloro-[1,1-biphenyl]-2-yl)ethyl)piperidin-4-yl)-1-(4-((2-ethoxypyridin-3-yl)methyl)piperazin-1-yl)ethan-1-one] | B (25 μM<EC99≤100 μM) | A (12.5 μM<EC99≤25 μM) | B (25 μM<EC99≤100 μM) | C (100 μM<EC99) | B (25 μM<EC99≤100 μM) |  |  |  |  | 
2 | CCOc1cccc(F)c1CN1CCN(C(=O)[C@H](N)C2CCN(CCc3c(-c4ccccc4)ccc(Cl)c3F)CC2)CC1 [Example 79, Hydrobromide of (R)-2-amino-2-(1-(2-(4-chloro-3-fluoro-[1,1′-biphenyl]-2-yl)ethyl)piperidin-4-yl)-1-(4-(2-ethoxy-6-fluorobenzyl)piperazin-1-yl)ethan-1-one] |  |  |  |  |  | S (EC99≤12.5 μM) | A (12.5 μM<EC99≤25 μM) | B (25 μM<EC99≤100 μM) | B (25 μM<EC99≤100 μM) | B (25 μM<EC99≤100 μM)
3 | CCSc1cc(F)ccc1CN1CCN(C(=O)[C@H](N)C2CCN(CCc3cc(Cl)ccc3-c3cc(O)cc(F)c3)CC2)CC1 [Example 609, (R)-2-amino-2-(1-(2-(4-chloro-3′-fluoro-5′-hydroxy-[1,1′-biphenyl]-2-yl)ethyl)piperidin-4-yl)-1-(4-(2-(ethylthio)-4-fluorobenzyl)piperazin-1-yl)ethan-1-one] | S (EC99≤12.5 μM) | S (EC99≤12.5 μM) | S (EC99≤12.5 μM) | S (EC99≤12.5 μM) | S (EC99≤12.5 μM) |  |  |  |  | 
4 | CCOc1cccc(F)c1CN1CCN(C(=O)[C@H](N)C2CCN(CCc3cc(Cl)ccc3-c3cccc(NC)c3)CC2)CC1 [Example 561, Hydrobromide of (R)-2-amino-2-(1-(2-(4-chloro-3′-(methylamino)-[1,1-biphenyl]-2-yl)ethyl)piperidin-4-yl)-1-(4-(2-ethoxy-6-fluorobenzyl)piperazin-1-yl)ethan-1-one] | S (EC99≤12.5 μM) | S (EC99≤12.5 μM) | S (EC99≤12.5 μM) | S (EC99≤12.5 μM) | A (12.5 μM<EC99≤25 μM) |  |  |  |  | 
5 | CCSc1cc(F)ccc1CN1CCN(C(=O)[C@H](N)C2CCN(CCc3cc(Cl)ccc3-c3cc(O)ccc3F)CC2)CC1 [Example 615, (R)-2-amino-2-(1-(2-(4-chloro-2′-fluoro-5′-hydroxy-[1,1′-biphenyl]-2-yl)ethyl)piperidin-4-yl)-1-(4-(2-(ethylthio)-4-fluorobenzyl)piperazin-1-yl)ethan-1-one] | S (EC99≤12.5 μM) | S (EC99≤12.5 μM) | S (EC99≤12.5 μM) | S (EC99≤12.5 μM) | S (EC99≤12.5 μM) |  |  |  |  | 
6 | N[C@@H](C(=O)N1CCN(Cc2cccc3cccnc23)CC1)C1CCN(CCc2cc(Cl)ccc2-c2ccccc2)CC1 [Example 533, Hydrobromide of (R)-2-amino-2-(1-(2-(4-chloro-[1,1-biphenyl]-2-yl)ethyl)piperidin-4-yl)-1-(4-(quinolin-8-ylmethyl)piperazin-1-yl)ethan-1-one] | A (12.5 μM<EC99≤25 μM) | A (12.5 μM<EC99≤25 μM) | B (25 μM<EC99≤100 μM) | A (12.5 μM<EC99≤25 μM) | A (12.5 μM<EC99≤25 μM) |  |  |  |  | 
7 | CCOc1cccc(F)c1CN1CCN(C(=O)[C@H](N)C2CCN(CCc3cc(Cl)ccc3-c3cccc(N)c3F)CC2)CC1 [Example 557, Hydrobromide of (R)-2-amino-2-(1-(2-(3′-amino-4-chloro-2′-fluoro-[1,1-biphenyl]-2-yl)ethyl)piperidin-4-yl)-1-(4-(2-ethoxy-6-fluorobenzyl)piperazin-1-yl)ethan-1-one] | A (12.5 μM<EC99≤25 μM) | A (12.5 μM<EC99≤25 μM) | S (EC99≤12.5 μM) | S (EC99≤12.5 μM) | S (EC99≤12.5 μM) |  |  |  |  | 
8 | CCOc1cccc(F)c1CN1CCN(C(=O)[C@H](N)C2CCN(CCC3COc4ccccc4C3)CC2)CC1 (stereo partly drawn) [Example 153, Hydrobromide of (2R)-2-amino-2-(1-(2-(chroman-3-yl)ethyl)piperidin-4-yl)-1-(4-(2-ethoxy-6-fluorobenzyl)piperazin-1-yl)ethan-1-one] |  |  |  |  |  | S (EC99≤12.5 μM) | S (EC99≤12.5 μM) | C (100 μM<EC99) | C (100 μM<EC99) | C (100 μM<EC99)
9 | CSc1ccc(O)cc1CN1CCN(C(=O)[C@H](N)C2CCN(CCc3cc(Cl)ccc3-c3ccccc3)CC2)CC1 [Example 587, Hydrochloride of (R)-2-amino-2-(1-(2-(4-chloro-[1,1-biphenyl]-2-yl)ethyl)piperidin-4-yl)-1-(4-(5-hydroxy-2-(methylthio)benzyl)piperazin-1-yl) ethan-1-one] | A (12.5 μM<EC99≤25 μM) | A (12.5 μM<EC99≤25 μM) | S (EC99≤12.5 μM) | S (EC99≤12.5 μM) | S (EC99≤12.5 μM) |  |  |  |  | 
10 | CSc1ccccc1CN1CCN(C(=O)[C@H](N)C2CCN(CCc3cc(Cl)ccc3-c3ccccc3N)CC2)CC1 [Example 556, Hydrobromide of (R)-2-amino-2-(1-(2-(2′-amino-4-chloro-[1,1-biphenyl]-2-yl)ethyl)piperidin-4-yl)-1-(4-(2-(methylthio)benzyl)piperazin-1-yl)ethan-1-one] | B (25 μM<EC99≤100 μM) | B (25 μM<EC99≤100 μM) | S (EC99≤12.5 μM) | S (EC99≤12.5 μM) | S (EC99≤12.5 μM) |  |  |  |  | 
11 | CCOc1cccc(F)c1CN1CCN(C(=O)[C@H](N)C2CCN(CCc3cc(Cl)ccc3-c3cc(N)ccc3Cl)CC2)CC1 [Example 560, Hydrobromide of (R)-2-amino-2-(1-(2-(5′-amino-2′,4-dichloro-[1,1-biphenyl]-2-yl)ethyl)piperidin-4-yl)-1-(4-(2-ethoxy-6-fluorobenzyl)piperazin-1-yl)ethan-1-one] | A (12.5 μM<EC99≤25 μM) | A (12.5 μM<EC99≤25 μM) | S (EC99≤12.5 μM) | S (EC99≤12.5 μM) | S (EC99≤12.5 μM) |  |  |  |  | 
12 | CCSc1cc(F)ccc1CN1CCN(C(=O)[C@H](N)C2CCN(CCc3cc(Cl)ccc3-c3cccc(NC)c3)CC2)CC1 [Example 607, Hydrochloride of (R)-2-amino-2-(1-(2-(4-chloro-3′-(methylamino)-[1,1-biphenyl]-2-yl)ethyl)piperidin-4-yl)-1-(4-(2-(ethylthio)-4-fluorobenzyl)piperazin-1-yl)ethan-1-one] | B (25 μM<EC99≤100 μM) | B (25 μM<EC99≤100 μM) | S (EC99≤12.5 μM) | S (EC99≤12.5 μM) | S (EC99≤12.5 μM) |  |  |  |  | 
13 | CCOc1cccc(F)c1CN1CCN(C(=O)[C@H](N)C2CCN(CCc3cc(Cl)ccc3-c3ccccc3)CC2)CC1 [Example 137, (R)-2-amino-2-(1-(2-(4-chloro-[1,1′-biphenyl]-2-yl)ethyl)piperidin-4-yl)-1-(4-(2-ethoxy-6-fluorobenzyl)piperazin-1-yl)ethan-1-one] |  |  |  |  |  | S (EC99≤12.5 μM) | S (EC99≤12.5 μM) | S (EC99≤12.5 μM) | A (12.5 μM<EC99≤25 μM) | A (12.5 μM<EC99≤25 μM)

— patent publication US20250326744A1, “PIPERAZINE DERIVATIVE OR SALT THEREOF, AND PHARMACEUTICAL COMPOSITION” (priority 2022, published 2025)
